Reference: patent US9265268B2, “Method of handling bananas” (priority 2009, dated 2016)

Key:
[1] = system: bananas; experiment: Example 1: bananas bagged at harvest, shipped, ethylene-ripened, exposed 12 hr to MCP, stored at approx. 20° C.; sugar spots, color, shelf life; format: in vivo, Musa; set-up: key to Sugar Spot Ratings: 0 = no spots, 1 = few, 2 = moderate, 3 = severe spots (group average)
Description: Each cluster of bananas was rated daily for sugar spots. Clusters were rated using the following scale:
0=no spots; 1=few spots; 2=moderate spots; 3=severe spots
Clusters with rating of 0-1 are commercially desirable to consumers. Clusters with ratings of 2-3 are unacceptable to consumers. In the results below, the average rating for all the clusters in a given treatment group is reported.
The color of banana peels is rated according to a seven stage rating scale: stage 1 (dark green); stage 2 (all light green); stage 3 (half green and half yellow); stage 4 (more yellow than green); stage 5 (green tips and necks); stage 6 (all yellow; maybe light green necks, no green tips); stage 7 (yellow flecked with brown). Consumers generally prefer to eat bananas in stage 5 or stage 6.
Bananas were harvested in Columbia and placed in bags. Three types of bags were used: • (1) non-MAP polymeric film bag, sized to hold 18 kg of bananas (“poly liner”). Each bag has two or more holes, each with diameter of approximately 20 mm or larger. • (2) non-MAP polymeric film bag with 44 large holes (hole diameter 10 mm), sized to hold 1.4 kg of bananas (“T-bag”); and • (3) MAP bag (as described above), sized to hold about 1.4 kg of bananas.
The appropriate weight of bananas was placed in each type of bag after harvest and prior to shipment. Bags were placed in standard cardboard carrying devices. Bananas then were shipped to Philadelphia, Pa., where they were exposed to ethylene using a standard 4 day ripening schedule. Standard commercial methods of shipment and exposure to ethylene were used.
The Test Protocol that was used was as follows. 312 MAP bags were packed. Each bag held approximately 1.4 kg (3 lb) of bananas. Thirteen such bags were packed in each box. Total weight of bananas in MAP bags was approximately 432 kg. Approximately 216 kg of bananas were placed into poly liners, which were placed into boxes identical to those used for the MAP bags. Approximately 216 kg of bananas were placed into T bags, which were placed into boxes identical to those used for the MAP bags. The gross fruit weight of the each box was approximately 19.5 kg (43 lb).
Banana heads (industry nomenclature is rasimo) were harvested at 14 weeks of age (typical for US markets). Heads were cut into large, medium and small hands. The hands were washed in chlorinated water tanks. The washed hands were further broken into clusters. Clusters were packed into bags that each held approximately 1.4 kg (3 lb) or bags that each held approximately 18 kg (40 lb). Bags were placed into standard cardboard boxes, and each box held approximately 18-20 kg. Each box had 8 round holes of diameter 40 mm, plus two larger oval holes that also served as hand-holds for carrying.
The MAP-packaged bananas were packaged as follows: Clusters of approximately 1.4 kg were carefully placed into microperforated bags, and the bags were sealed by twisting the open side of the bag, folding down the twisted end, and placing a rubber band around the twisted and folded end of the bag.
All bananas were quickly cooled to 13.3° C. and held at that temperature for shipping. During shipping, air ventilation was approximately 15%.
Bags were not opened during shipping or ripening. Temperature was monitored in some of the bags by placing a temperature probe in one banana in that bag prior to sealing.
Bananas were ripened in forced-air ripening rooms as follows. On day 1, bananas were kept at 18° C. (64° F.) and exposed to exogenous ethylene (150 ppm for 24 hours). No further exogenous ethylene was used. After day 1, bananas were kept at 18° C. for two days and then at 10° C. for one day. The temperatures given are pulp temperatures and not room temperatures. Humidity was 85% to 95%.
Bananas were then shipped to Spring House, Pa. Bananas arrived at color stage 2.5-3. The bananas were randomly divided into treatment sets as follows: […]

[2] = system: bananas; experiment: Example US-7c: various number of bananas per bag (day on which sugar spots developed); format: in vivo, Musa; conditions: for SS day (day during holding at 17.8° C. on which sugar spots developed): MAP/MCP: MAP type M, 1,000 ppb 1-MCP
Protocol: Bananas were handled and tested as in Example US-1, except that the number of bananas (“# of B”) per bag was varied. Results for MAP bags type M were compared at 0 1-MCP (“MAP only”) and at 1,000 ppb of 1-MCP (“MAP/MCP”). MAP only samples are comparative; MAP/MCP samples exemplify the present invention.
Also, the sugar spots were assessed. In this experiment, the number of the day during the holding at 17.8° C. on which sugar spots developed is noted (“SS day”). Bananas in T-bags (with either 0 or 1,000 ppb of 1-MCP) developed sugar spots on day 3.

CC1=CC1 [1-MCP, 1-methylcyclopropene]
additional shelf life ([1]; 1-MCP alone (no MAP)): 1 to 2 days
Sugar Spot Ratings ([1]; MAP, 300 ppb MCP, Day 0): 0
Sugar Spot Ratings ([1]; MAP, 300 ppb MCP, Day 1): 0
Sugar Spot Ratings ([1]; MAP, 300 ppb MCP, Day 2): 0.00
Sugar Spot Ratings ([1]; MAP, 300 ppb MCP, Day 3): 0.19
Sugar Spot Ratings ([1]; MAP, 300 ppb MCP, Day 4): 0.53
Sugar Spot Ratings ([1]; MAP, 300 ppb MCP, Day 5): 0.92
Sugar Spot Ratings ([1]; MAP, 300 ppb MCP, Day 6): 1.61
Sugar Spot Ratings ([1]; MAP, 1000 ppb MCP, Day 0): 0
Sugar Spot Ratings ([1]; MAP, 1000 ppb MCP, Day 1): 0
Sugar Spot Ratings ([1]; MAP, 1000 ppb MCP, Day 2): 0.11
Sugar Spot Ratings ([1]; MAP, 1000 ppb MCP, Day 3): 0.22
Sugar Spot Ratings ([1]; MAP, 1000 ppb MCP, Day 4): 0.56
Sugar Spot Ratings ([1]; MAP, 1000 ppb MCP, Day 5): 1.56
Sugar Spot Ratings ([1]; MAP, 1000 ppb MCP, Day 6): 1.89
Sugar Spot Ratings ([1]; T bags, 300 ppb MCP, Day 0): 0
Sugar Spot Ratings ([1]; T bags, 300 ppb MCP, Day 1): 0
Sugar Spot Ratings ([1]; T bags, 300 ppb MCP, Day 2): 0
Sugar Spot Ratings ([1]; T bags, 300 ppb MCP, Day 3): 0.94
Sugar Spot Ratings ([1]; T bags, 300 ppb MCP, Day 4): 2.44
Sugar Spot Ratings ([1]; T bags, 300 ppb MCP, Day 5): 2.78
Sugar Spot Ratings ([1]; T bags, 1000 ppb MCP, Day 0): 0
Sugar Spot Ratings ([1]; T bags, 1000 ppb MCP, Day 1): 0
Sugar Spot Ratings ([1]; T bags, 1000 ppb MCP, Day 2): 0
Sugar Spot Ratings ([1]; T bags, 1000 ppb MCP, Day 3): 0.44
Sugar Spot Ratings ([1]; T bags, 1000 ppb MCP, Day 4): 2.06
Sugar Spot Ratings ([1]; T bags, 1000 ppb MCP, Day 5): 2.61
visual quality maintained beyond the standard handling method ([1]; combined treatment 1-MCP and MAP): 10 days
Sugar Spot Ratings ([1]; poly liner, 300 ppb MCP, Day 0): 0
Sugar Spot Ratings ([1]; poly liner, 300 ppb MCP, Day 1): 0
Sugar Spot Ratings ([1]; poly liner, 300 ppb MCP, Day 2): 0.06
Sugar Spot Ratings ([1]; poly liner, 300 ppb MCP, Day 3): 0.33
Sugar Spot Ratings ([1]; poly liner, 300 ppb MCP, Day 4): 2.17
Sugar Spot Ratings ([1]; poly liner, 300 ppb MCP, Day 5): 2.89
Sugar Spot Ratings ([1]; poly liner, 1000 ppb MCP, Day 0): 0
Sugar Spot Ratings ([1]; poly liner, 1000 ppb MCP, Day 1): 0
Sugar Spot Ratings ([1]; poly liner, 1000 ppb MCP, Day 2): 0.00
Sugar Spot Ratings ([1]; poly liner, 1000 ppb MCP, Day 3): 0.33
Sugar Spot Ratings ([1]; poly liner, 1000 ppb MCP, Day 4): 2.67
Sugar Spot Ratings ([1]; poly liner, 1000 ppb MCP, Day 5): 2.89
SS day (day during holding at 17.8° C. on which sugar spots developed) ([2]; # of B 1): 4
SS day (day during holding at 17.8° C. on which sugar spots developed) ([2]; # of B 3): 5
SS day (day during holding at 17.8° C. on which sugar spots developed) ([2]; # of B 5): 6
SS day (day during holding at 17.8° C. on which sugar spots developed) ([2]; # of B 7): 8
SS day (day during holding at 17.8° C. on which sugar spots developed) ([2]; # of B 9): 8
SS day (day during holding at 17.8° C. on which sugar spots developed) ([2]; # of B 12): 8
day on which sugar spots developed ([2]; T-bags, 1,000 ppb of 1-MCP): 3
